According to US8613914B2, “Peptidomimetic sulfamide compounds and antiviral uses thereof” (Novartis AG, priority 2009, dated 2013):

Molecular target: HCV NS3-4A serine protease (full-length NS3-4A protein) (Hepatitis C virus genotype 1a (isolate 1) (HCV), UniProt P26664)
Test: HCV NS3-4A protease assay
Assay type: biochemical, HCV genotype 1a
Details: strain HCV-1, fluorogenic peptide substrate, read-out: Protease assay Ex. 12 IC50
Procedure: The inhibitory activity of certain compounds of Table A against HCV NS3-4A serine protease is determined in a homogenous assay using the full-length NS3-4A protein (genotype 1a, strain HCV-1) and a commercially available internally-quenched fluorogenic peptide substrate as described by Taliani, M., et al. 1996 Anal. Biochem. 240:60-67, which is incorporated by reference in its entirety.

HCV NS3-4A serine protease (full-length NS3-4A protein), sequence (P26664 1027-1657): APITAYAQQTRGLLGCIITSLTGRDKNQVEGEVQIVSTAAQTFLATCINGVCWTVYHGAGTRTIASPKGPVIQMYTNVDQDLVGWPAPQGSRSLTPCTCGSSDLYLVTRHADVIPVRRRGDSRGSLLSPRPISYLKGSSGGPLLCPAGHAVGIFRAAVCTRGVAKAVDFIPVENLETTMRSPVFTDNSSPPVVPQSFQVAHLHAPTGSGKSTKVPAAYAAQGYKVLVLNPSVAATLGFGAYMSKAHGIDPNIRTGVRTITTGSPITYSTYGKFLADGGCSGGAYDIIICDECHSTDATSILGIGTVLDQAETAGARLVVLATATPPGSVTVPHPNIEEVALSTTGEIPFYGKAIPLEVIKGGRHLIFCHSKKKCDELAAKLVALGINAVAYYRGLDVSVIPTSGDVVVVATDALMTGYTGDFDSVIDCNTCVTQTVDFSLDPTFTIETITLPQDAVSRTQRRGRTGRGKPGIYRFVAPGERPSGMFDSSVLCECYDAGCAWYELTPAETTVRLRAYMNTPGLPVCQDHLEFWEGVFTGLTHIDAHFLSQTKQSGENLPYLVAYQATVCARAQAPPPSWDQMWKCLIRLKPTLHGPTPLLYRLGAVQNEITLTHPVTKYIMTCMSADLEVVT
HCV NS3-4A serine protease (full-length NS3-4A protein), sequence (P26664 1658-1711 partner): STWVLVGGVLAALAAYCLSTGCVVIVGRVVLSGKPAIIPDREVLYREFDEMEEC

Row | Compound | IC50 [nM]
1 | C=C[C@@H]1C[C@]1(NC(=O)[C@@H]1C[C@@]2(CN1C(=O)[C@@H](NC(=O)[C@@H](NC(=O)[C@H]1CCCCN1C(C)C)C1CCCCC1)C(C)(C)C)C(C)(C)C21CCC1)C(=O)NS(=O)(=O)N(C)C(C)C [Compound 119, (5R,8S)-7-[(2S)-2-{[(2S)-2-cyclohexyl-2-({[(2R)-1-isopropylpiperidin-2-yl]carbonyl}amino)acetyl]amino}-3,3-dimethylbutanoyl]-N-[(1R,2S)-1-({[isopropyl(methyl)amino]sulfonyl}carbamoyl)-2-vinylcyclopropyl]-10,10-dimethyl-7-azadispiro[3.0.4.1]decane-8-carboxamide] | 6.5
2 | C=C[C@@H]1C[C@]1(NC(=O)[C@@H]1C[C@@]2(CN1C(=O)[C@@H](NC(=O)[C@@H](NC(=O)c1[nH]c(C)c(C)c1C(C)=O)C(C)(C)C)C(C)(C)C)C(C)(C)C21CCC1)C(=O)NS(=O)(=O)N1CCCC1 [Compound 161, (5R,8S)-7-[(2S)-2-{[(2S)-2-{[(3-acetyl-4,5-dimethyl-1H-pyrrol-2-yl)carbonyl]amino}-3,3-dimethylbutanoyl]amino}-3,3-dimethylbutanoyl]-10,10-dimethyl-N-{(1R,2S)-1-[(pyrrolidin-1-ylsulfonyl)carbamoyl]-2-vinylcyclopropyl}-7-azadispiro[3.0.4.1]decane-8-carboxamide] | 65
3 | CC[C@@H]1C[C@]1(NC(=O)[C@@H]1C[C@@]2(CN1C(=O)[C@@H](NC(=O)[C@@H](NC(=O)[C@H]1CCCCN1C(C)C)C1CCCCC1)C(C)(C)C)C(C)(C)C21CCC1)C(=O)NS(=O)(=O)N(CC)CC [Compound 121, (5R,8S)-7-[(2S)-2-{[(2S)-2-cyclohexyl-2-({[(2R)-1-isopropylpiperidin-2-yl]carbonyl}amino)acetyl]amino}-3,3-dimethylbutanoyl]-N-[(1R,2R)-1-{[(diethylamino)sulfonyl]carbamoyl}-2-ethylcyclopropyl]-10,10-dimethyl-7-azadispiro[3.0.4.1]decane-8-carboxamide] | 7
4 | C=C[C@@H]1C[C@]1(NC(=O)[C@@H]1C[C@@]2(CN1C(=O)[C@@H](NC(=O)[C@@H](NC(=O)[C@@H]1CCCN(CC)C1)C(C)(C)C)C(C)(C)C)C(C)(C)C21CCC1)C(=O)NS(=O)(=O)N1CCCC1 [Compound 4, (5R,8S)-7-[(2S)-2-{[(2S)-2-({[(3R)-1-ethylpiperidin-3-yl]carbonyl}amino)-3,3-dimethylbutanoyl]amino}-3,3-dimethylbutanoyl]-10,10-dimethyl-N-{(1R,2S)-1-[(pyrrolidin-1-ylsulfonyl)carbamoyl]-2-vinylcyclopropyl}-7-azadispiro[3.0.4.1]decane-8-carboxamide] | 35
5 | C=C[C@@H]1C[C@]1(NC(=O)[C@@H]1C[C@@]2(CN1C(=O)[C@@H](NC(=O)[C@@H](NC(=O)[C@@H]1CCCCN1C1CCCC1)C1CCCCC1)C(C)(C)C)C(C)(C)C21CCC1)C(=O)NS(=O)(=O)N1CCCC1 [Compound 32, (5R,8S)-7-[(2S)-2-{[(2S)-2-cyclohexyl-2-({[(2S)-1-cyclopentylpiperidin-2-yl]carbonyl}amino)acetyl]amino}-3,3-dimethylbutanoyl]-10,10-dimethyl-N-{(1R,2S)-1-[(pyrrolidin-1-ylsulfonyl)carbamoyl]-2-vinylcyclopropyl}-7-azadispiro[3.0.4.1]decane-8-carboxamide] | 1
6 | C=C[C@@H]1C[C@]1(NC(=O)[C@@H]1C[C@@]2(CN1C(=O)[C@@H](NC(=O)[C@@H](NC(=O)[C@@H]1CCCCN1C(C)C)C1CCCCC1)C(C)(C)C)C(C)(C)C21CCC1)C(=O)NS(=O)(=O)N1CC[C@H](F)C1 [Compound 46, (5R,8S)-7-[(2S)-2-{[(2S)-2-cyclohexyl-2-({[(2S)-1-isopropylpiperidin-2-yl]carbonyl}amino)acetyl]amino}-3,3-dimethylbutanoyl]-N-[(1R,2S)-1-({[(3S)-3-fluoropyrrolidin-1-yl]sulfonyl}carbamoyl)-2-vinylcyclopropyl]-10,10-dimethyl-7-azadispiro[3.0.4.1]decane-8-carboxamide] | 2
7 | C=C[C@@H]1C[C@]1(NC(=O)[C@@H]1C[C@@]2(CN1C(=O)[C@@H](NC(=O)[C@@H](NC(=O)[C@@H]1CCCCN1C)C1CCCCC1)C(C)(C)C)C(C)(C)C21CCC1)C(=O)NS(=O)(=O)N(CC)CC [Compound 118, (5R,8S)-7-[(2S)-2-{[(2S)-2-cyclohexyl-2-({[(2S)-1-methylpiperidin-2-yl]carbonyl}amino)acetyl]amino}-3,3-dimethylbutanoyl]-N-[(1R,2S)-1-{[(diethylamino)sulfonyl]carbamoyl}-2-vinylcyclopropyl]-10,10-dimethyl-7-azadispiro[3.0.4.1]decane-8-carboxamide] | 4.5
8 | C=C[C@@H]1C[C@]1(NC(=O)[C@@H]1C[C@@]2(CN1C(=O)[C@@H](NC(=O)[C@@H](NC(=O)[C@@H]1CCCCN1CC)c1ccccc1)C(C)(C)C)C(C)(C)C21CCC1)C(=O)NS(=O)(=O)N1CCCC1 [Compound 103, (5R,8S)-7-[(2S)-2-{[(2S)-2-({[(2S)-1-ethylpiperidin-2-yl]carbonyl}amino)-2-phenylacetyl]amino}-3,3-dimethylbutanoyl]-10,10-dimethyl-N-{(1R,2S)-1-[(pyrrolidin-1-ylsulfonyl)carbamoyl]-2-vinylcyclopropyl}-7-azadispiro[3.0.4.1]decane-8-carboxamide] | 20
9 | C=C[C@@H]1C[C@]1(NC(=O)[C@@H]1C[C@@]2(CN1C(=O)[C@@H](NC(=O)[C@@H](NC(=O)[C@@H]1CCC(F)(F)CN1C(C)C)C1CCCCC1)C(C)(C)C)C(C)(C)C21CCC1)C(=O)NS(=O)(=O)N1CCCC1 [Compound 105, (5R,8S)-7-[(2S)-2-{[(2S)-2-cyclohexyl-2-({[(2S)-5,5-difluoro-1-isopropylpiperidin-2-yl]carbonyl}amino)acetyl]amino}-3,3-dimethylbutanoyl]-10,10-dimethyl-N-{(1R,2S)-1-[(pyrrolidin-1-ylsulfonyl)carbamoyl]-2-vinylcyclopropyl}-7-azadispiro[3.0.4.1]decane-8-carboxamide] | 45
10 | C=C[C@@H]1C[C@]1(NC(=O)[C@@H]1C[C@@]2(CN1C(=O)[C@@H](NC(=O)[C@@H](NC(=O)[C@@H]1CCCCN1C(C)C)C(C)(C)C)C1(C)CCOCC1)C(C)(C)C21CCC1)C(=O)NS(=O)(=O)N1CCCC1 [Compound 128, (5R,8S)-7-[(2S)-2-[(N-{[(2S)-1-isopropylpiperidin-2-yl]carbonyl}-3-methyl-L-valyl)amino]-2-(4-methyltetrahydro-2H-pyran-4-yl)acetyl]-10,10-dimethyl-N-{(1R,2S)-1-[(pyrrolidin-1-ylsulfonyl)carbamoyl]-2-vinylcyclopropyl}-7-azadispiro[3.0.4.1]decane-8-carboxamide] | 1.4
11 | C=C[C@@H]1C[C@]1(NC(=O)[C@@H]1C[C@@]2(CN1C(=O)[C@@H](NC(=O)[C@@H](NC(=O)c1cnccn1)C1CCOCC1)C(C)(C)C)C(C)(C)C21CCC1)C(=O)NS(=O)(=O)N1CCCC1 [Compound 43, (5R,8S)-7-[(2S)-3,3-dimethyl-2-{[(2S)-2-[(pyrazin-2-ylcarbonyl)amino]-2-(tetrahydro-2H-pyran-4-yl)acetyl]amino}butanoyl]-10,10-dimethyl-N-{(1R,2S)-1-[(pyrrolidin-1-ylsulfonyl)carbamoyl]-2-vinylcyclopropyl}-7-azadispiro[3.0.4.1]decane-8-carboxamide] | 60
